# Tests used:
# [1] = Mouse PBL (plasma:brain level) study; type: in vivo
# Method: fortified tube and immediately placed on wet ice. The blood sample was then centrifuged (1700 rcf, 5 minutes, 4 °C) to obtain plasma sample. At the same post-administration time point, a whole brain sample was obtained by rapid dissection, rinsed with PBS, and immediately frozen in individual tissue collection box (dry ice). All brain and plasma samples were stored at -80 °C until
# Sample Analysis: Concentrations in plasma and brain homogenates were quantified by liquid chromatography tandem mass spectrometry (LC-MS/MS). Whole brains were homogenized in 3 mL of 70:30 IPA:water in a mini bead beater for 3 min, and centrifuged at 3,500 g for 5 min. 5 uL of the supernatant was diluted in 15 uL of blank plasma for quantification of the analytes. Plasma samples were centrifuged at 3,500 g for 5 min. A standard curve was generated by diluting the analytes DMSO stocks with blank plasma to obtain a final concentration of 10,000 ng/mL followed by a serial dilution down to 0.5 ng/mL. Quality controls were generated by a serial dilution of the 5,000 ng/mL standard curve solution in blank plasma to obtain 3 concentrations of 500, 50, and 5 ng/mL. 20 uL of brain diluted in plasma, plasma, blank plasma, standard curve and QC samples were loaded in a V-bottom 96-well plate. 120 uL of acetonitrile containing 0.05 uM carbamazepine (internal standard) was added to each well and the plate was centrifuged at 3,500 g for 5 min. 60 uL of the supernatant of each well (protein free) was transferred to a new 96-well plate containing 60 uL of water. The plates were sealed for analysis by LC-MS/MS.
# Plasma and brain tissue samples originating from in vivo studies were analyzed by electrospray ionization using an AB Sciex Q-TRAP 5500 (Foster City, CA) that was coupled to a Shimadzu LC-20AD pump (Columbia, MD) and a Leap Technologies CTC PAL auto-sampler (Carrboro, NC). Analytes were separated by gradient elution using a C18 column (3 x 50 mm, 3 mm; Fortis Technologies Ltd, Cheshire, UK) that was thermostated at 40 °C. HPLC mobile phase A was 0.1% formic acid in water (pH unadjusted); mobile phase B was 0.1% formic acid in acetonitrile (pH
# min, with an isocratic hold for 0.5 min, before transitioning to 10% B over 0.05 min. The column was re-equilibrated (1 min) before the next sample injection. The total run time was 2.55 min, and the HPLC flow rate was 0.5 mL/min. The source temperature was set at 500 °C, and mass spectral analyses were performed using a Turbo-Ion spray source in positive ionization mode (5.0-kV spray voltage) and using multiple-reaction monitoring of transitions specific for the analytes. All data were analyzed using AB Sciex Analyst 1.5.1 software.
# Brain plasma concentration ratio (Kp) was calculated by dividing brain concentration by plasma concentration for each animal. Unbound brain to unbound plasma concentration ratio (Kp,uu) is calculated using the following formula: Kp,uu = (Brain ng/g x brain fu)/(plasma ng/mL x plasma
# [2] = Brain homogenate binding (mouse); type: in vitro ADME
# Method: (§1) 0.3% DMSO - ΔRatio of 1 µM control compound)x100
# In vitro Plasma protein binding and Brain homogenate binding: Determination of fraction unbound (f u) in plasma was conducted in vitro via equilibrium dialysis using HTDialysis (HTD) membrane plates. The top half of the plate was filled with 100 uL of Dubelco’s Phosphate Buffered Saline, pH 7.4 (DPBS). Compounds were diluted into plasma from each species (5 µM final concentration), which was aliquoted in triplicate to the ‘bottom half’ of the prepared HTD plate wells. The HTD plate was sealed and incubated for 6 hours at 37 °C. […]
# The unbound fraction (f u) was calculated following the equation below, and mean values for each species were calculated from 3 replicates. […] Fraction unbound for both plasma and brain samples was determined using Equation 4. […]
# The diluted fraction unbound (fu2) in brain was calculated in the same manner by using brain homogenate rather than plasma. Undiluted fraction unbound for the brain was calculated using […]
# were incubated in 100 mM potassium phosphate pH 7.4 buffer with 3 mM MgCl2 at 37 °C with constant shaking. […] The in vitro half-life (T 1/2, min, Eq. 1), intrinsic clearance (CLint, mL/min/kg, Eq. 2), and subsequent predicted hepatic clearance (CLhep, mL/min/kg, Eq. 3) were determined employing the following equations: […]
# [3] = Plasma protein binding (human); type: in vitro ADME; details: pH 7.4, read-out: PPB human (converted)
# Method: as §1
# (§2) In vitro Plasma protein binding and Brain homogenate binding: Determination of fraction unbound (f u) in plasma was conducted in vitro via equilibrium dialysis using HTDialysis (HTD) membrane plates. The top half of the plate was filled with 100 uL of Dubelco’s Phosphate Buffered Saline, pH 7.4 (DPBS). Compounds were diluted into plasma from each species (5 µM final concentration), which was aliquoted in triplicate to the ‘bottom half’ of the prepared HTD plate wells. The HTD plate was sealed and incubated for 6 hours at 37 °C. Following incubation, each well (both top and bottom halves) were transferred (20 µL) to the corresponding wells of a 96-shallow-well (V-bottom) plate. The daughter plates were then matrix-matched (DPBS side wells received equal volume of plasma, and plasma side wells received equal volume of DPBS), and extraction solution (120 µL; acetonitrile containing 50 nM carbamazepine as IS) was added to all wells of both daughter plates to precipitate protein and extract test article. The plates were then sealed and centrifuged (3500 rcf) for 10 minutes at ambient temperature. Supernatant (60 µL) from each well of the daughter plates was then transferred to the corresponding wells of new daughter plates (96-shallow-well, V bottom) containing water (Milli-Q, 60 µL/well), and the plates were sealed in preparation for LC-MS/MS analysis (see LC-MS/MS analysis method below).
# (§3) The unbound fraction (f u) was calculated following the equation below, and mean values for each species were calculated from 3 replicates. A similar approach was used to determine the degree of brain homogenate binding, which employed the same methodology and procedure with the following modifications: 1) a final compound concentration of 1 μM was used, 2) naïve rat brains were homogenized in DPBS (1:3 composition of brain: DPBS, w/w) using a Mini-Bead Beater™ machine in order to obtain brain homogenate, which was then treated in the same manner as the plasma samples in the previously described plasma protein binding assay. Fraction unbound for both plasma and brain samples was determined using Equation 4.
# [4] = Plasma protein binding (mouse); type: in vitro ADME; details: pH 7.4, read-out: PPB mouse (converted)
# Method: as §1, §2, §3
# male CD-1 mice = experiment: MK-801 challenged novel object recognition (NOR) task; type: in vivo, mouse; details: IP, 3.5 h prior to MK-801 (0.2 mg/kg IP)
# Method: A plastic chamber (W 345×L 400×H 180 mm) was used for the novel object recognition test. The light intensity in the test room was maintained at approximately 20 lux. The novel object recognition test was conducted over two days. On the first day, mice were placed in the chamber without any objects and allowed to explore freely for 10 minutes to acclimate to the experimental environment. […] Thirty minutes after the MK-801 challenge, the acquisition trial
# KCNQ1 = KCNQ1 (Homo sapiens, UniProt P51787); experiment: Cardiac ion channel MPC selectivity panel; type: cell-based
# Imidazoline I2, Central = experiment: Eurofins lead profiling screen (radioligand binding); design: species or system Rat
# Muscarinic M3 = Muscarinic M3 (Homo sapiens, UniProt P20309); experiment: as above
# Endothelin ETB = Endothelin ETB (Homo sapiens, UniProt P24530); experiment: as above
# Androgen (Testosterone) = Androgen (Testosterone) (Homo sapiens, UniProt P10275); experiment: as above
# Dopamine D3 = Dopamine D3 (Homo sapiens, UniProt P35462); experiment: as above
# Tachykinin NK1 = Tachykinin NK1 (Homo sapiens, UniProt P25103); experiment: as above
# Histamine H2 = Histamine H2 (Homo sapiens, UniProt P25021); experiment: as above
# [5] = target: Leukotriene, Cysteinyl CysLT1 (Homo sapiens, UniProt Q9Y271); experiment: as above
# [6] = tested on: Glutamate, NMDA, Phencyclidine; experiment: as above; design: species or system Rat
# Cannabinoid CB1 = Cannabinoid CB1 (Homo sapiens, UniProt P21554); experiment: as above
# Dopamine D2S = Dopamine D2S (Homo sapiens, UniProt P14416); experiment: as above
# Sigma σ1 = Sigma σ1 (Homo sapiens, UniProt Q99720); experiment: as above
# Adrenergic β2 = Adrenergic β2 (Homo sapiens, UniProt P07550); experiment: as above
# Nicotinic Acetylcholine = experiment: as above; design: species or system Human
# Rolipram = experiment: as above; design: species or system Rat
# Interleukin IL-1 R1 = Interleukin IL-1 R1 (Homo sapiens, UniProt P14778); experiment: as above
# Purinergic P2Y = experiment: as above; design: species or system Rat
# Cannabinoid CB1, sequence (P21554 whole entry): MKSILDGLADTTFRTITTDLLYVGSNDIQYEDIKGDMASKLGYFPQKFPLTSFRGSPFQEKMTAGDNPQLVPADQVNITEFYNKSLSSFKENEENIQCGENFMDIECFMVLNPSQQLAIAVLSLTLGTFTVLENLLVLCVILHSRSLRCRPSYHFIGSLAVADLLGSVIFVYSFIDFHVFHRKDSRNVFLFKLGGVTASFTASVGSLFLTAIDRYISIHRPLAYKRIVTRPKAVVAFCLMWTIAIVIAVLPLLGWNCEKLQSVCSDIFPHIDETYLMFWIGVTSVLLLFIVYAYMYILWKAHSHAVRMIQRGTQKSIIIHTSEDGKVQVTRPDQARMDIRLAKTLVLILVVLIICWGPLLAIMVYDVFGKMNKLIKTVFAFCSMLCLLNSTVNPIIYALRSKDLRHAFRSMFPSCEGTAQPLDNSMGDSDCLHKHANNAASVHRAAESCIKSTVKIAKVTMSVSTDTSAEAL
# Dopamine D3, sequence (P35462 whole entry): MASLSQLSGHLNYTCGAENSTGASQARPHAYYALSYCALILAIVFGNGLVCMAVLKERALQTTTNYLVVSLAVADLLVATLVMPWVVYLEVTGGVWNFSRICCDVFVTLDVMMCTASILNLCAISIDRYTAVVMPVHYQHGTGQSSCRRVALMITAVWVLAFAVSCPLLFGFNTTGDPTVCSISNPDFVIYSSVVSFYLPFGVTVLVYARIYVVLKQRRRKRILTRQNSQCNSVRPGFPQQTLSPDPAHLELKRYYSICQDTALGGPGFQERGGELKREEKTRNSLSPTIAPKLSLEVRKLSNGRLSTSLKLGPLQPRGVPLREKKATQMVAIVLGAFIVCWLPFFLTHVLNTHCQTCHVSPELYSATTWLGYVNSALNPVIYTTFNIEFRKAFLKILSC
# Sigma σ1, sequence (Q99720 whole entry): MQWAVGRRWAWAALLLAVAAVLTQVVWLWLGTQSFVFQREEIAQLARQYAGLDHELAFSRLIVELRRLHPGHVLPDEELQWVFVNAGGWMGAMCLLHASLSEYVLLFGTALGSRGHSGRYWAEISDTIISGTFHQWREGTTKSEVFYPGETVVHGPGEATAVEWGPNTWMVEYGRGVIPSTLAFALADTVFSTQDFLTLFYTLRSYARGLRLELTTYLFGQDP
# Endothelin ETB, sequence (P24530 27-442): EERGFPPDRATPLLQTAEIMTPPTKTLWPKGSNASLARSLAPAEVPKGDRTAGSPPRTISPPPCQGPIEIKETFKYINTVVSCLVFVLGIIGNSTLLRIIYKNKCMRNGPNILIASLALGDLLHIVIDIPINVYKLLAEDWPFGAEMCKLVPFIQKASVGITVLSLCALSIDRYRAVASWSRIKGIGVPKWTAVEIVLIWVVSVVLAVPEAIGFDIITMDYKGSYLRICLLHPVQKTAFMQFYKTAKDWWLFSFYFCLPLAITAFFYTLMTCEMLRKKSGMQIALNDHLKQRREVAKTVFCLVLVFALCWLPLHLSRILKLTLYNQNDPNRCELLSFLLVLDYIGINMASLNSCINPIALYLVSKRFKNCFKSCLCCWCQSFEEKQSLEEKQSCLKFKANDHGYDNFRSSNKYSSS
# Interleukin IL-1 R1, sequence (P14778 18-569): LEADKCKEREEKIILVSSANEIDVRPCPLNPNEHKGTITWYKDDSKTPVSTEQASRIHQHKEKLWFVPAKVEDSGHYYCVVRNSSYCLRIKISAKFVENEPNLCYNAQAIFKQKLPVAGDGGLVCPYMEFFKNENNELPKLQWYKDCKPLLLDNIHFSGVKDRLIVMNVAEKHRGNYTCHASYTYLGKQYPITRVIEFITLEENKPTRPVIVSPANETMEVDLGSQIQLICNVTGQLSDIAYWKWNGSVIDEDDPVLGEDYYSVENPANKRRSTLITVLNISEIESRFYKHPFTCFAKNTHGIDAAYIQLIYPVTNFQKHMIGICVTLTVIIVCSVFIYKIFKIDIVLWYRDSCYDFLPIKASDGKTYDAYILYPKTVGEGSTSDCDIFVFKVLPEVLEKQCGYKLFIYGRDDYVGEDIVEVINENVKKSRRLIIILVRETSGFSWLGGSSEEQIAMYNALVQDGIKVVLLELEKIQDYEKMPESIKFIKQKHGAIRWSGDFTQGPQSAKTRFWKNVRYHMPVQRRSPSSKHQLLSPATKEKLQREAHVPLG
# Muscarinic M3, sequence (P20309 whole entry): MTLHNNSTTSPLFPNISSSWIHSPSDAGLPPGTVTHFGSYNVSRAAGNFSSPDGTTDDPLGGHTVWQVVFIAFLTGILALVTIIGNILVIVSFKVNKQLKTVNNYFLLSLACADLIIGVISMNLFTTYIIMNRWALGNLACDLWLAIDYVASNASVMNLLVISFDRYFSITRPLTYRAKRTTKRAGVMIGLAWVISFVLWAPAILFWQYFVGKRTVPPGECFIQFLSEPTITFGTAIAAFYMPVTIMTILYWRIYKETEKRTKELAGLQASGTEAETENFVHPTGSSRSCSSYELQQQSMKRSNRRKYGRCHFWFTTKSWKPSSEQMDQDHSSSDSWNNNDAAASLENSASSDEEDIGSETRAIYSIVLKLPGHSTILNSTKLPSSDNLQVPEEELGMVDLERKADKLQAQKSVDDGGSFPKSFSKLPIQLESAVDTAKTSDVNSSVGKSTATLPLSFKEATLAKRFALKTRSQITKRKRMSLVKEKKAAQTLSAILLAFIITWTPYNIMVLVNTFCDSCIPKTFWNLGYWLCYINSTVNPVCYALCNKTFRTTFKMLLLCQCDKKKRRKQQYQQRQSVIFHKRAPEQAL
# Leukotriene, Cysteinyl CysLT1, sequence (Q9Y271 whole entry): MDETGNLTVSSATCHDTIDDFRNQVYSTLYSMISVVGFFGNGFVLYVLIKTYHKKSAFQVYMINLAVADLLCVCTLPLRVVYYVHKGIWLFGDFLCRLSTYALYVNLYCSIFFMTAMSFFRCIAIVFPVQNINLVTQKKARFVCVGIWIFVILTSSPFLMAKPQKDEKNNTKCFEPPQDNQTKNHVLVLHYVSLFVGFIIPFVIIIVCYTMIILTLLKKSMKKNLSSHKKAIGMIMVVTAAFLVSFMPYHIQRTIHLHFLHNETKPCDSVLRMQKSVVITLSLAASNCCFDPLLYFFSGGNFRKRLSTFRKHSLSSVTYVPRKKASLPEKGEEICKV
# Tachykinin NK1, sequence (P25103 whole entry): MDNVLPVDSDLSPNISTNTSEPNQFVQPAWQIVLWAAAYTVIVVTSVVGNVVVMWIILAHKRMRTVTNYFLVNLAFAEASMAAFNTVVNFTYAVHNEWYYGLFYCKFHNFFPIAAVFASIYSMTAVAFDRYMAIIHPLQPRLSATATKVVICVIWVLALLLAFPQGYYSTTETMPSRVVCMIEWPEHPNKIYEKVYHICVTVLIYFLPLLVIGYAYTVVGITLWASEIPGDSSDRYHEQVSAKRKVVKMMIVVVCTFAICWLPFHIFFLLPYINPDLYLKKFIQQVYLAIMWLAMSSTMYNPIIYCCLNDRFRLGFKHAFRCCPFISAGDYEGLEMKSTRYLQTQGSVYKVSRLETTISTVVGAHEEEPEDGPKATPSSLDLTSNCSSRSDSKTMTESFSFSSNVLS
# Adrenergic β2, sequence (P07550 whole entry): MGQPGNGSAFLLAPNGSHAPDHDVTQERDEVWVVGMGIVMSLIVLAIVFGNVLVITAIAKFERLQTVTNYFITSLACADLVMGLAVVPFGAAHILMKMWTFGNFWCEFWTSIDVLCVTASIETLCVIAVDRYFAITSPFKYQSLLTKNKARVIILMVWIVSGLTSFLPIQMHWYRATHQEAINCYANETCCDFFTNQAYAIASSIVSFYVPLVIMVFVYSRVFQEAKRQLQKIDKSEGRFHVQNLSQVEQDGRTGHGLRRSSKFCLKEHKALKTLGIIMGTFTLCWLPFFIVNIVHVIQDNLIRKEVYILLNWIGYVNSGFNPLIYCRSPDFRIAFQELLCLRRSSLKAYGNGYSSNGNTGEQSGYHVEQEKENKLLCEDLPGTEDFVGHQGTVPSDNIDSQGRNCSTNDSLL
# Dopamine D2S, sequence (P14416 1-414 isoform P14416-2): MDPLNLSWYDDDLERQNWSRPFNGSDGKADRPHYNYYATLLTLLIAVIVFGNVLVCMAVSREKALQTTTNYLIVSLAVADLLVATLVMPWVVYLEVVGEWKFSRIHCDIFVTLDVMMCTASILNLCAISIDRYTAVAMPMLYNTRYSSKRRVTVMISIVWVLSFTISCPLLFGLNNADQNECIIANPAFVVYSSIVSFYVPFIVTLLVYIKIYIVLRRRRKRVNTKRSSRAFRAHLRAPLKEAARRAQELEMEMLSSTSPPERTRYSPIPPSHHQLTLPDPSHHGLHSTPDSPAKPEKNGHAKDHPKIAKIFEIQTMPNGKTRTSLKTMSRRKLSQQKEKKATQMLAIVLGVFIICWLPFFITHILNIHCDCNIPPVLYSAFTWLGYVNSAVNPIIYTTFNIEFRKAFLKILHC
# Histamine H2, sequence (P25021 whole entry): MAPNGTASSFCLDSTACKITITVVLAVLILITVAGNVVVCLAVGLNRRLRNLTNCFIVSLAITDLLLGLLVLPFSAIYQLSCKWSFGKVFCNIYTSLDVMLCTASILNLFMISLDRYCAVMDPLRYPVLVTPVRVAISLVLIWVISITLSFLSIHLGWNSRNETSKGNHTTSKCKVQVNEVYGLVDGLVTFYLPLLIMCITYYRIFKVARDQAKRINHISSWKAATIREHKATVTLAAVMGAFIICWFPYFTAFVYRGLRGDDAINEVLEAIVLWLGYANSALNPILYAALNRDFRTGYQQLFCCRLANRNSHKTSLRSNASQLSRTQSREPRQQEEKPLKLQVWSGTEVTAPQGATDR
smiles,measurement,setting,value
Cc1cc(C#Cc2ccc(F)cc2)cnc1NC(=O)c1cc(NC(=O)OC(C)(C)C)ccc1Cl [Compound 14c],Tmax,"[1]; CD-1, brain, mouse, 10 mg/kg IP",4 h
same,Cmax total brain concentration,"[1]; CD-1 male mouse, 10 mg/kg PO",252 nM
same,brain AUC,"[1]; CD-1 male mouse, 10 mg/kg PO",2269 nM·h
same,Tmax,"[1]; brain, CD-1 male mouse, 10 mg/kg PO",4 h
same,Cmax total brain exposure,"[1]; mouse, 10 mg/kg IP",888 nM
same,brain AUC,"[1]; mouse, 10 mg/kg IP","12,261 h*nM"
same,Cmax unbound brain,"[1]; mouse, 10 mg/kg IP, based on mouse brain homogenate binding",5.3 nM
same,brain homogenate binding mouse,[2],99.4%
same,"fraction unbound at 6 h, 5 µM",[3],0.006
same,"fraction unbound at 6 h, 5 µM",[4],0.016
same,minimum effective dose (MED),male CD-1 mice,10 mg/kg
same,"% at 10 μM, KCNQ1",KCNQ1,< 50%
O=C(NCc1ccc(OC(F)(F)F)cc1F)c1ccc2ncnn2c1 [ONO-2920632],% Inhibition at 10 µM,"Imidazoline I2, Central",10%
same,inhibition at 10 µM,Muscarinic M3,7%
same,inhibition at 10 µM,Endothelin ETB,-6%
same,inhibition at 10 µM,Androgen (Testosterone),7%
same,inhibition at 10 µM,Dopamine D3,12%
same,inhibition at 10 µM,Tachykinin NK1,13%
same,inhibition at 10 µM,Histamine H2,-12%
same,inhibition at 10 µM,[5],-7%
same,% Inhibition at 10 µM,[6],-15%
same,inhibition at 10 µM,Cannabinoid CB1,-23%
same,inhibition at 10 µM,Dopamine D2S,-1%
same,inhibition at 10 µM,Sigma σ1,30%
same,inhibition at 10 µM,Adrenergic β2,4%
same,% Inhibition at 10 µM,Nicotinic Acetylcholine,-10%
same,% Inhibition at 10 µM,Rolipram,5%
same,inhibition at 10 µM,Interleukin IL-1 R1,-1%
same,% Inhibition at 10 µM,Purinergic P2Y,1%
